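A five-concentration, 48-hour dose response in 96-well plates underlies each endpoint, interpolated linearly between surrounding concentrations. Here, GI50 denotes the concentration required for 50% inhibition of growth. TGI: concentration producing complete growth inhibition.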
What was measured:
Test in all cases: DTP human tumour cell line panel, 48 h
786-0 renal = system: 786-0 renal
A498 renal = system: A498 renal
A549 NSCLC = system: A549 NSCLC
ACHN renal = system: ACHN renal
BT-549 breast = system: BT-549 breast
CAKI-1 renal = system: CAKI-1 renal
CCRF-CEM leukemia = system: CCRF-CEM leukemia
COLO 205 colon = system: COLO 205 colon
DU-145 prostate = system: DU-145 prostate
EKVX NSCLC = system: EKVX NSCLC
HCC-2998 colon = system: HCC-2998 colon
HCT-116 colon = system: HCT-116 colon
HCT-15 colon = system: HCT-15 colon
HL-60(TB) leukemia = system: HL-60(TB) leukemia
HOP-62 NSCLC = system: HOP-62 NSCLC
HOP-92 NSCLC = system: HOP-92 NSCLC
HS 578T breast = system: HS 578T breast
HT29 colon = system: HT29 colon
IGROV1 ovarian = system: IGROV1 ovarian
K-562 leukemia = system: K-562 leukemia
KM12 colon = system: KM12 colon
LOX IMVI melanoma = system: LOX IMVI melanoma
M14 melanoma = system: M14 melanoma
MALME-3M melanoma = system: MALME-3M melanoma
MCF7 breast = system: MCF7 breast
MDA-MB-231 breast = system: MDA-MB-231 breast
MOLT-4 leukemia = system: MOLT-4 leukemia
NCI-H226 lung = system: NCI-H226 lung
NCI-H23 lung = system: NCI-H23 lung
NCI-H460 lung = system: NCI-H460 lung
NCI-H522 lung = system: NCI-H522 lung
NCI/ADR-RES ovarian = system: NCI/ADR-RES ovarian
OVCAR-3 ovarian = system: OVCAR-3 ovarian
OVCAR-4 ovarian = system: OVCAR-4 ovarian
OVCAR-5 ovarian = system: OVCAR-5 ovarian
OVCAR-8 ovarian = system: OVCAR-8 ovarian
PC-3 prostate = system: PC-3 prostate
RPMI-8226 leukemia = system: RPMI-8226 leukemia
RXF 393 renal = system: RXF 393 renal
SF-268 CNS = system: SF-268 CNS
SF-295 CNS = system: SF-295 CNS
SF-539 CNS = system: SF-539 CNS
SK-MEL-2 melanoma = system: SK-MEL-2 melanoma
SK-MEL-28 melanoma = system: SK-MEL-28 melanoma
SK-MEL-5 melanoma = system: SK-MEL-5 melanoma
SK-OV-3 ovarian = system: SK-OV-3 ovarian
SN12C renal = system: SN12C renal
SNB-19 CNS = system: SNB-19 CNS
SNB-75 CNS = system: SNB-75 CNS
SR leukemia = system: SR leukemia
SW-620 colon = system: SW-620 colon
T-47D breast = system: T-47D breast
TK-10 renal = system: TK-10 renal
U251 CNS = system: U251 CNS
UACC-257 melanoma = system: UACC-257 melanoma
UACC-62 melanoma = system: UACC-62 melanoma
UO-31 renal = system: UO-31 renal

In the case of `COc1ccc(-c2cc(=O)[nH]c3c(OC)c4ccccc4c(OC)c23)cc1`, the GI50 (786-0 renal) was 0.532 µM, the TGI (786-0 renal) was > 100 µM and the GI50 (A498 renal) was 0.145 µM. For the same molecule, the GI50 (A549 NSCLC) was 0.708 µM, the TGI (A549 NSCLC) was > 100 µM and the GI50 (ACHN renal) was 0.663 µM. For the same molecule, the TGI (ACHN renal) was > 100 µM, the GI50 (BT-549 breast) was 2.33 µM and the TGI (BT-549 breast) was > 100 µM. For the same molecule, the GI50 (CAKI-1 renal) was 0.376 µM, the TGI (CAKI-1 renal) was > 100 µM and the GI50 (CCRF-CEM leukemia) was 0.401 µM. The TGI (CCRF-CEM leukemia) was > 100 µM, the GI50 (COLO 205 colon) was 0.424 µM and the TGI (COLO 205 colon) was 3.52 µM. For the same molecule, the GI50 (DU-145 prostate) was 0.671 µM, the TGI (DU-145 prostate) was > 100 µM and the GI50 (EKVX NSCLC) was 2.87 µM. The TGI (EKVX NSCLC) was > 100 µM, the GI50 (HCC-2998 colon) was 1.28 µM and the TGI (HCC-2998 colon) was > 23.1 µM. For the same molecule, the GI50 (HCT-116 colon) was 0.38 µM, the TGI (HCT-116 colon) was > 100 µM and the GI50 (HCT-15 colon) was 0.419 µM. For the same molecule, the TGI (HCT-15 colon) was > 100 µM, the GI50 (HL-60(TB) leukemia) was 0.276 µM and the GI50 (HOP-62 NSCLC) was 1.47 µM. For the same molecule, the TGI (HOP-62 NSCLC) was > 100 µM, the GI50 (HOP-92 NSCLC) was 0.409 µM and the TGI (HOP-92 NSCLC) was > 100 µM. For the same molecule, the GI50 (HS 578T breast) was 0.345 µM, the GI50 (HT29 colon) was 0.342 µM and the GI50 (IGROV1 ovarian) was 0.47 µM. For the same molecule, the TGI (IGROV1 ovarian) was > 91.5 µM, the GI50 (K-562 leukemia) was 0.346 µM and the TGI (K-562 leukemia) was > 100 µM. The GI50 (KM12 colon) was 0.323 µM, the TGI (KM12 colon) was > 100 µM and the GI50 (LOX IMVI melanoma) was 0.655 µM. The TGI (LOX IMVI melanoma) was > 100 µM, the GI50 (M14 melanoma) was 0.388 µM and the GI50 (MALME-3M melanoma) was 2.99 µM. For the same molecule, the TGI (MALME-3M melanoma) was > 100 µM, the GI50 (MCF7 breast) was 0.357 µM and the TGI (MCF7 breast) was > 100 µM. The GI50 (MDA-MB-231 breast) was 1.44 µM, the TGI (MDA-MB-231 breast) was > 100 µM and the GI50 (MOLT-4 leukemia) was 0.914 µM. The TGI (MOLT-4 leukemia) was > 100 µM, the GI50 (NCI-H226 lung) was > 20 µM and the TGI (NCI-H226 lung) was > 100 µM. For the same molecule, the GI50 (NCI-H23 lung) was 0.817 µM, the TGI (NCI-H23 lung) was > 100 µM and the GI50 (NCI-H460 lung) was 0.379 µM. It also gave a GI50 (NCI-H522 lung) of 0.284 µM, a TGI (NCI-H522 lung) of 3.26 µM and a GI50 (NCI/ADR-RES ovarian) of 0.291 µM. The GI50 (OVCAR-3 ovarian) was 0.165 µM, the TGI (OVCAR-3 ovarian) was 0.713 µM and the GI50 (OVCAR-4 ovarian) was 1.21 µM. The TGI (OVCAR-4 ovarian) was > 100 µM, the GI50 (OVCAR-5 ovarian) was 3.58 µM and the TGI (OVCAR-5 ovarian) was > 100 µM. The GI50 (OVCAR-8 ovarian) was 1.29 µM, the TGI (OVCAR-8 ovarian) was > 100 µM and the GI50 (PC-3 prostate) was 0.382 µM. For the same molecule, the TGI (PC-3 prostate) was > 100 µM, the GI50 (RPMI-8226 leukemia) was 0.289 µM and the TGI (RPMI-8226 leukemia) was > 20.2 µM. The GI50 (RXF 393 renal) was 0.409 µM, the TGI (RXF 393 renal) was > 19.9 µM and the GI50 (SF-268 CNS) was 0.552 µM. For the same molecule, the TGI (SF-268 CNS) was > 100 µM, the GI50 (SF-295 CNS) was 0.272 µM and the GI50 (SF-539 CNS) was 0.393 µM. The GI50 (SK-MEL-2 melanoma) was 0.486 µM, the TGI (SK-MEL-2 melanoma) was > 100 µM and the GI50 (SK-MEL-28 melanoma) was 3.45 µM. The TGI (SK-MEL-28 melanoma) was > 100 µM, the GI50 (SK-MEL-5 melanoma) was 0.398 µM and the TGI (SK-MEL-5 melanoma) was > 100 µM. For the same molecule, the GI50 (SK-OV-3 ovarian) was 0.606 µM, the TGI (SK-OV-3 ovarian) was > 100 µM and the GI50 (SN12C renal) was 0.612 µM. The TGI (SN12C renal) was > 100 µM, the GI50 (SNB-19 CNS) was 2.06 µM and the TGI (SNB-19 CNS) was > 100 µM. The GI50 (SNB-75 CNS) was 0.246 µM, the TGI (SNB-75 CNS) was 1.68 µM and the GI50 (SR leukemia) was 0.431 µM. The TGI (SR leukemia) was > 100 µM, the GI50 (SW-620 colon) was 0.418 µM and the TGI (SW-620 colon) was > 100 µM. For the same molecule, the GI50 (T-47D breast) was 0.356 µM, the TGI (T-47D breast) was > 100 µM and the GI50 (TK-10 renal) was > 42.4 µM. For the same molecule, the TGI (TK-10 renal) was > 100 µM, the GI50 (U251 CNS) was 0.419 µM and the TGI (U251 CNS) was > 100 µM. The TGI (UACC-257 melanoma) was > 100 µM, the GI50 (UACC-62 melanoma) was 0.396 µM and the TGI (UACC-62 melanoma) was > 100 µM. The GI50 (UO-31 renal) was 0.725 µM and the TGI (UO-31 renal) was > 100 µM.

Source: PubChem BioAssay (NCI)
